Values of other authors in US7056734B1, “Differentiation of non-insulin producing cells into insulin producing cells by GLP-1 or exendin-4 and uses thereof” (The United States of America as represented by the …, priority 1998, dated 2006).

Test system: AR42J cells
Conditions: Mashima et al., 1996; cited from earlier work

## HGF: hepatocyte growth factor
  AR42J cells converted into insulin-producing / insulin positive cells: about 3%
